Experimental data reported in paper PMC10794144, “A novel antibiotic class targeting the lipopolysaccharide transporter” (Nature, 2024).
Values after ≈ are worked out from the molar mass of the structure shown.

Key:
A. baumannii = test: microbe, parasite or virus in culture
Method in brief: (§1)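 MIC was taken as the lowest concentration without visible growth, or past which OD600 no longer fell. Testing followed CLSI M07 and M100 broth microdilution, using 0.5 McFarland-derived inocula in CAMHB (LB for A. baylyi isolates).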

E. coli ATCC 25922 = test: microbe, parasite or virus in culture; details: Escherichia coli, ATCC25922
Method in brief: as §1

With `CN1C(=O)[C@H](CCCCN)NC(=O)[C@H](CCCN)NCc2cccnc2Sc2c(Cl)ccc(-c3ccc(C(=O)O)cc3)c2CNC(=O)[C@@H]1Cc1c[nH]c2ccccc12` [RO7202110] the MIC range (A. baumannii; 10 MDR isolates, CAMHB, MCPs read at 80% growth inhibition) was ≤0.06 − 0.12 mg l^−1, the MIC90 (A. baumannii; Acinetobacter baumannii) was 0.12 µg/mL (≈ 0.145 µM) and the MIC (A. baumannii; Acinetobacter baumannii, ATCC17978, ATCC 17978, CAMHB, one replicate, MCPs read at 80% growth inhibition) was at most 0.06 µg/mL. For the same compound, the MIC (A. baumannii; Acinetobacter baumannii, ATCC19606, ATCC 19606, CAMHB, MCPs read at 80% growth inhibition) was at most 0.06 µg/mL and the MIC (E. coli ATCC 25922) was over 64 µg/mL.
